Reference: ChEMBL document CHEMBL4665893, “Scalable Synthesis, In Vitro cccDNA Reduction, and In Vivo Antihepatitis B Virus Activity of a Phosphonomethoxydeoxythreosyl Adenine Prodrug” (J Med Chem, 2020)
Active and inactive are the calls of the source. The calls are words filed in the database; no cut-off is given here.

Key:
[1] = Toxicity in C57BL/6 female mouse assessed as reduction in mean corpuscular volume level at 60 mg/kg, po for 14 days by hematology analysis; format: organism-based; details: in vivo, 336 h, time 14 day
[2] = Toxicity in C57BL/6 male mouse assessed as increase in neutrophils level at 60 mg/kg, po for 14 days by hematology analysis; format: organism-based; details: in vivo, 336 h, time 14 day
[3] = system: Hepatitis B virus; assay: Antiviral activity against HBV infected hydrodynamic injection C57BL/6 mouse model assessed as reduction in serum HBV DNA level at 0.6 to 60 mg/kg, po QD for 6 days by qPCR analysis; format: functional, organism-based; details: dose mg/kg 0.6-60, time 6.0 day
[4] = Toxicity in C57BL/6 male mouse assessed as reduction in mean corpuscular volume level at 60 mg/kg, po for 14 days by hematology analysis; format: organism-based; details: in vivo, 336 h, time 14 day
[5] = Plasma concentration in C57BL/6 mouse at 6 mg/kg, po administered as single dose after 0.25 to 24 hrs by LC/MS/MS analysis; format: ADME, organism-based; details: in vivo, time 0.25-24 hrs
[6] = Toxicity in C57BL/6 female mouse assessed as reduction in hematocrit level at 60 mg/kg, po for 14 days by hematology analysis; format: organism-based; details: in vivo, 336 h, time 14 day
[7] = Toxicity in C57BL/6 female mouse assessed as effect on organ weight level at 60 mg/kg, po for 14 days; format: organism-based; details: in vivo, 336 h, time 14 day
[8] = Toxicity in C57BL/6 female mouse assessed as reduction in erythrocytes level at 60 mg/kg, po for 14 days by hematology analysis; format: organism-based; details: in vivo, 336 h, time 14 day
[9] = Toxicity in C57BL/6 male mouse assessed as increase in LDL-C level at 60 mg/kg, po for 14 days; format: organism-based; details: in vivo, 336 h, time 14 day
[10] = Toxicity in C57BL/6 female mouse assessed as increase in thymus weight level at 60 mg/kg, po for 14 days; format: organism-based; details: in vivo, 336 h, time 14 day
[11] = system: Hepatitis B virus; assay: Antiviral activity against ETV-resistant and adenovirus AdH294-7LR harboring wild-type HBV infected in human HepG2 cells assessed as viral replicative intermediate DNA level at 40 nM incubated for 5 days by Southern blot analysis (reference value: 100%); format: functional; details: time 5 day
[12] = system: Hepatitis B virus; assay: Antiviral activity against adenovirus AdH294-WT harboring wild-type HBV genotype D accession #V01460 infected in human HepG2 cells assessed as reduction in viral replicative intermediate DNA level at 3300 nM incubated for 5 days by Southern blot analysis (reference value: 100%); format: functional; set-up: scale not given: the % may be the effect or the level left; details: time 5 day
[13] = system: Hepatitis B virus; assay: Antiviral activity against adenovirus AdH294-WT harboring wild-type HBV genotype D accession #V01460 infected in human HepG2 cells assessed as reduction in viral replicative intermediate DNA level at 1100 nM incubated for 5 days by Southern blot analysis (reference value: 100%); format: functional; set-up: scale not given: the % may be the effect or the level left; details: time 5 day
[14] = system: Hepatitis B virus; assay: Antiviral activity against ETV-resistant and adenovirus AdH294-7LR harboring wild-type HBV infected in human HepG2 cells assessed as viral replicative intermediate DNA level at 10000 nM incubated for 5 days by Southern blot analysis (reference value: 100%); format: functional; details: time 5 day
[15] = Toxicity in HBV infected hydrodynamic injection C57BL/6 mouse model assessed as effect on body weight at 0.6 to 60 mg/kg, po QD for 6 days; format: organism-based; details: in vivo, 144 h, dose 0.6-60 mg/kg, time 6 day
[16] = Toxicity in C57BL/6 female mouse assessed as reduction in lymphocytes level at 60 mg/kg, po for 14 days by hematology analysis; format: organism-based; details: in vivo, 336 h, time 14 day
[17] = Toxicity in C57BL/6 male mouse assessed as effect on clinical chemistry level at 60 mg/kg, po for 14 days; format: organism-based; details: in vivo, 336 h, time 14 day
[18] = system: Hepatitis B virus; assay: Antiviral activity against adenovirus AdH294-WT harboring wild-type HBV genotype D accession #V01460 infected in human HepG2 cells assessed as reduction in viral replicative intermediate DNA level at 10000 nM incubated for 5 days by Southern blot analysis (reference value: 100%); format: functional; set-up: scale not given: the % may be the effect or the level left; details: time 5 day
[19] = Toxicity in C57BL/6 male mouse assessed as reduction in lymphocytes level at 60 mg/kg, po for 14 days by hematology analysis; format: organism-based; details: in vivo, 336 h, time 14 day
[20] = Selectivity index, […] against HBV infected in human HepDE19 cells to CC50 for toxicity in human HepDE19 cells; format: cell-based; details: read-out: Ratio CC50/IC50
[21] = system: Hepatitis B virus; assay: Antiviral activity against HBV infected in human HepDE19 cells assessed as reduction in HBV cccDNA incubated for 9 days by qPCR analysis; format: functional, organism-based; details: HepDE19, 216 h
[22] = Toxicity in C57BL/6 female mouse assessed as reduction in hemoglobin level at 60 mg/kg, po for 14 days by hematology analysis; format: organism-based; details: in vivo, 336 h, time 14 day
[23] = system: Hepatitis B virus; assay: Antiviral activity against ETV-resistant and adenovirus AdH294-7LR harboring wild-type HBV infected in human HepG2 cells assessed as viral replicative intermediate DNA level at 4 nM incubated for 5 days by Southern blot analysis (reference value: 100%); format: functional; details: time 5 day
[24] = system: Hepatitis B virus; assay: Antiviral activity against ETV-resistant and adenovirus AdH294-7LR harboring wild-type HBV infected in human HepG2 cells assessed as reduction in viral replicative intermediate DNAs at 4 to 1000 nM incubated for 5 days by Southern blot analysis; format: functional, organism-based; details: time 5.0 day
[25] = Genotoxicity in Salmonella typhimurium TA98 assessed as increase in number of spontaneous revertants colonies by Ames test; format: toxicity; details: salmonella enterica subsp. enterica serovar typhimurium, 1 µM

CC(C)CCOC(=O)C[C@H](NP(=O)(CO[C@H]1CO[C@@H](n2cnc3c(N)ncnc32)C1)Oc1ccccc1)C(=O)OCCC(C)C (mixture of isomers)
Activity [1]: Non-Toxic | Activity [2]: Toxic | Activity [3]: Active | Activity [4]: Toxic | Cp [5]: < 1.01 ng/mL | Activity [6]: Non-Toxic | Activity [7]: Non-Toxic | Activity [8]: Non-Toxic | Activity [9]: Toxic | Activity [10]: Toxic | Activity [11]: 59.1% | Activity [12]: 0% | Activity [13]: 0.7% | Activity [14]: 5.9% | Activity [15]: Non-Toxic | Activity [16]: Non-Toxic | Activity [17]: Non-Toxic | Activity [18]: 0% | Activity [19]: Toxic | selectivity ratio [20]: 37 | IC50 [21]: 0.006 µM | IC90 ([21]; time 9 day): 0.07 µM | Activity [22]: Non-Toxic | Activity [23]: 98.2% | Activity [24]: Active | Activity [25]: Non-Toxic
